Results on 11 compounds are retold here after the SangsterLogP compilation.

As usually defined, the logP is the decadic logarithm of the partition coefficient of the neutral form, usually between octanol and water. As to `CCCCCCCCNC(=C[N+](=O)[O-])NS(=O)(=O)c1cnccc1NCCCCCCCC`, the log partition coefficient (logP) worked out at 2.86.

As to `CCCCCCCNc1ccncc1S(=O)(=O)NC(=C[N+](=O)[O-])NCCCCCC`, the log partition coefficient (logP) worked out at 1.99.

Turning to `CCCCCCNC(=C[N+](=O)[O-])NS(=O)(=O)c1cnccc1Nc1cccc(C)c1`, the logP was 1.66.

For `CCCCCCCCNc1ccncc1S(=O)(=O)NC(=C[N+](=O)[O-])NCCCCCCC`, the lipophilicity (logP) was determined as 2.59.

For `CCCCCCCNC(=C[N+](=O)[O-])NS(=O)(=O)c1cnccc1NCCCCCC`, the logP was 1.97.

Consider `O=[N+]([O-])C=C(NC1CCCCC1)NS(=O)(=O)c1cnccc1NC1CCCCC1`, for which the logP was found to be 1.59.

Regarding `CCCCCCNC(=C[N+](=O)[O-])NS(=O)(=O)c1cnccc1NCCCCCC`, the logP was 1.67.

Turning to `CCCCCCCCNc1ccncc1S(=O)(=O)NC(=C[N+](=O)[O-])NCCCCCC`, the logP came to 2.31.

For `CCCCCCCCNC(=C[N+](=O)[O-])NS(=O)(=O)c1cnccc1NCCCCCC`, the logP was 2.27.

In the case of `CCNc1ccncc1S(=O)(=O)NC(=C[N+](=O)[O-])NC(C)C`, the logP was -0.48.

For the compound `CCCCCCCNC(=C[N+](=O)[O-])NS(=O)(=O)c1cnccc1NCCCCCCC`, the log partition coefficient (logP) came out at 2.3.
